What all share (assay): Test of herbicidal activities (greenhouse pot method)
Format in all cases: in vivo
Conditions in all cases: single dose 300 g ai./h, treated before/after germination, 15 days later, greenhouse pot

For one assay, the system named is Amaranthus retroflexus. The procedure, abridged: (§1)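 Greenhouse pot test on weeds grown in mixed garden/mountain/humus soil at 15-30° C; pre- and post-emergence spray at a single dose of 300 g ai./h via automatic spraying tower (0.2 MPa). Inhibition scored after 15 days into five levels A (90-100%) to E (<50%); triplicate with blank control.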
A further assay deals with Digiatria sanguinalis. The procedure, abridged: as §1
The test system of another assay is Chenopodium album. A digest of the protocol: as §1
In a further assay the test system is Setaria viridis. A digest of the protocol: as §1
A further assay relates to Brassica juncea. The procedure, abridged:
as §1

Another assay deals with Echinochloa crusgalli. A digest of the protocol:
as §1

In the case of `Cc1nn(-c2cc3nc(SCc4ccccc4F)sc3cc2F)c(=O)n1C(F)F` [Compound 18], the “Herbicidal activity Amaranthus retroflexus (inhibition level)” value with Amaranthus retroflexus is listed as “A (90 ≦ A ≦ 100%)”. In addition, the “Herbicidal activity Digiatria sanguinalis (inhibition level)” value with Digiatria sanguinalis is “A (90 ≦ A ≦ 100%)”. Moreover, in the assay on Chenopodium album, the “Herbicidal activity Chenopodium album (inhibition level)” value is “C (60 ≦ C < 80%)”. Also, in the assay with Setaria viridis, the “Herbicidal activity Setaria viridis (inhibition level)” value is on record as “B (80 ≦ B < 90%)”. In the assay on Brassica juncea, the “Herbicidal activity Brassica juncea (inhibition level)” value is “B (80 ≦ B < 90%)”. The “Herbicidal activity Echinochloa crusgalli (inhibition level)” value in the assay on Echinochloa crusgalli is “C (60 ≦ C < 80%)”.
With `Cc1nn(-c2cc3nc(SCc4ccc(Br)cc4)sc3cc2Cl)c(=O)n1C(F)F` [Compound 6], the “Herbicidal activity Amaranthus retroflexus (inhibition level)” value with Amaranthus retroflexus is on record as “B (80 ≦ B < 90%)”. Besides, the “Herbicidal activity Digiatria sanguinalis (inhibition level)” value in the assay on Digiatria sanguinalis is “E (E < 50%)”. In addition, the “Herbicidal activity Chenopodium album (inhibition level)” value in the assay with Chenopodium album is recorded as “B (80 ≦ B < 90%)”. Moreover, in the assay with Setaria viridis, the “Herbicidal activity Setaria viridis (inhibition level)” value is listed as “C (60 ≦ C < 80%)”. Also, the “Herbicidal activity Brassica juncea (inhibition level)” value in the assay on Brassica juncea is on record as “C (60 ≦ C < 80%)”. In the assay on Echinochloa crusgalli, the “Herbicidal activity Echinochloa crusgalli (inhibition level)” value is reported as “B (80 ≦ B < 90%)”.
For `CCOC(=O)C(C)Sc1nc2cc(-n3nc(C)n(C(F)F)c3=O)c(F)cc2s1` (stereo not drawn) [Compound 89], the “Herbicidal activity Amaranthus retroflexus (inhibition level)” value in the assay with Amaranthus retroflexus is given as “B (80 ≦ B < 90%)”. Further, the “Herbicidal activity Digiatria sanguinalis (inhibition level)” value in the assay with Digiatria sanguinalis is “A (90 ≦ A ≦ 100%)”. In the assay on Chenopodium album, the “Herbicidal activity Chenopodium album (inhibition level)” value is recorded as “C (60 ≦ C < 80%)”. The “Herbicidal activity Setaria viridis (inhibition level)” value in the assay on Setaria viridis is reported as “A (90 ≦ A ≦ 100%)”. Besides, in the assay on Brassica juncea, the “Herbicidal activity Brassica juncea (inhibition level)” value is recorded as “B (80 ≦ B < 90%)”. In the assay on Echinochloa crusgalli, the “Herbicidal activity Echinochloa crusgalli (inhibition level)” value is reported as “A (90 ≦ A ≦ 100%)”.
For the compound `Cc1ccc([N+](=O)[O-])c(CS(=O)(=O)c2nc3cc(-n4nc(C)n(C(F)F)c4=O)c(F)cc3s2)c1` [Compound 46], in the assay with Amaranthus retroflexus, the “Herbicidal activity Amaranthus retroflexus (inhibition level)” value is listed as “A (90 ≦ A ≦ 100%)”. For the same compound, the “Herbicidal activity Digiatria sanguinalis (inhibition level)” value with Digiatria sanguinalis was “B (80 ≦ B < 90%)”. Moreover, the “Herbicidal activity Chenopodium album (inhibition level)” value with Chenopodium album is “C (60 ≦ C < 80%)”. Also, in the assay on Setaria viridis, the “Herbicidal activity Setaria viridis (inhibition level)” value was “B (80 ≦ B < 90%)”. For the same compound, the “Herbicidal activity Brassica juncea (inhibition level)” value in the assay with Brassica juncea is “E (E < 50%)”. Besides, in the assay on Echinochloa crusgalli, the “Herbicidal activity Echinochloa crusgalli (inhibition level)” value is on record as “D (50 ≦ D < 60%)”.
As for `Cc1nn(-c2cc3nc(SCn4cnc5ccccc5c4=O)sc3cc2F)c(=O)n1C(F)F` [Compound 74], the “Herbicidal activity Amaranthus retroflexus (inhibition level)” value in the assay with Amaranthus retroflexus is given as “B (80 ≦ B < 90%)”. The “Herbicidal activity Digiatria sanguinalis (inhibition level)” value in the assay with Digiatria sanguinalis was “B (80 ≦ B < 90%)”. Moreover, the “Herbicidal activity Chenopodium album (inhibition level)” value in the assay with Chenopodium album was “C (60 ≦ C < 80%)”. In addition, in the assay with Setaria viridis, the “Herbicidal activity Setaria viridis (inhibition level)” value is listed as “A (90 ≦ A ≦ 100%)”. The “Herbicidal activity Brassica juncea (inhibition level)” value in the assay with Brassica juncea was “B (80 ≦ B < 90%)”. In addition, the “Herbicidal activity Echinochloa crusgalli (inhibition level)” value in the assay on Echinochloa crusgalli was “A (90 ≦ A ≦ 100%)”.
With `Cc1nn(-c2cc3nc(SCc4ccc(Cl)cc4)sc3cc2Cl)c(=O)n1C(F)F` [Compound 5], the “Herbicidal activity Amaranthus retroflexus (inhibition level)” value in the assay on Amaranthus retroflexus is given as “A (90 ≦ A ≦ 100%)”. Also, the “Herbicidal activity Digiatria sanguinalis (inhibition level)” value in the assay with Digiatria sanguinalis is reported as “B (80 ≦ B < 90%)”. Besides, the “Herbicidal activity Chenopodium album (inhibition level)” value in the assay with Chenopodium album is on record as “E (E < 50%)”. For the same compound, in the assay with Setaria viridis, the “Herbicidal activity Setaria viridis (inhibition level)” value was “E (E < 50%)”. Further, the “Herbicidal activity Brassica juncea (inhibition level)” value in the assay with Brassica juncea is listed as “B (80 ≦ B < 90%)”. The “Herbicidal activity Echinochloa crusgalli (inhibition level)” value in the assay with Echinochloa crusgalli is “C (60 ≦ C < 80%)”.
On to `CCCCCCSc1nc2cc(-n3nc(C)n(C(F)F)c3=O)c(F)cc2s1` [Compound 83], for which, in the assay with Amaranthus retroflexus, the “Herbicidal activity Amaranthus retroflexus (inhibition level)” value was “A (90 ≦ A ≦ 100%)”. Moreover, the “Herbicidal activity Digiatria sanguinalis (inhibition level)” value in the assay on Digiatria sanguinalis is given as “D (50 ≦ D < 60%)”. Besides, the “Herbicidal activity Chenopodium album (inhibition level)” value in the assay with Chenopodium album is recorded as “A (90 ≦ A ≦ 100%)”. Also, the “Herbicidal activity Setaria viridis (inhibition level)” value with Setaria viridis is “A (90 ≦ A ≦ 100%)”. Besides, in the assay on Brassica juncea, the “Herbicidal activity Brassica juncea (inhibition level)” value is “C (60 ≦ C < 80%)”. The “Herbicidal activity Echinochloa crusgalli (inhibition level)” value in the assay on Echinochloa crusgalli is given as “B (80 ≦ B < 90%)”.
In the case of `CCSc1nc2cc(-n3nc(C)n(C(F)F)c3=O)c(Cl)cc2s1` [Compound 86], the “Herbicidal activity Amaranthus retroflexus (inhibition level)” value with Amaranthus retroflexus is reported as “A (90 ≦ A ≦ 100%)”. In addition, the “Herbicidal activity Digiatria sanguinalis (inhibition level)” value in the assay with Digiatria sanguinalis is reported as “A (90 ≦ A ≦ 100%)”. Also, the “Herbicidal activity Chenopodium album (inhibition level)” value in the assay on Chenopodium album is given as “B (80 ≦ B < 90%)”. The “Herbicidal activity Setaria viridis (inhibition level)” value in the assay with Setaria viridis is given as “A (90 ≦ A ≦ 100%)”. The “Herbicidal activity Brassica juncea (inhibition level)” value in the assay on Brassica juncea is reported as “A (90 ≦ A ≦ 100%)”. In the assay with Echinochloa crusgalli, the “Herbicidal activity Echinochloa crusgalli (inhibition level)” value is recorded as “A (90 ≦ A ≦ 100%)”.
Take `CSc1nc2cc(-n3nc(C)n(C(F)F)c3=O)c(F)cc2s1` [Compound 90]: in the assay with Amaranthus retroflexus, the “Herbicidal activity Amaranthus retroflexus (inhibition level)” value was “A (90 ≦ A ≦ 100%)”. The “Herbicidal activity Digiatria sanguinalis (inhibition level)” value in the assay with Digiatria sanguinalis is reported as “A (90 ≦ A ≦ 100%)”. Besides, the “Herbicidal activity Chenopodium album (inhibition level)” value with Chenopodium album was “A (90 ≦ A ≦ 100%)”. Moreover, the “Herbicidal activity Setaria viridis (inhibition level)” value with Setaria viridis was “A (90 ≦ A ≦ 100%)”. Also, the “Herbicidal activity Brassica juncea (inhibition level)” value in the assay with Brassica juncea is “A (90 ≦ A ≦ 100%)”. In the assay on Echinochloa crusgalli, the “Herbicidal activity Echinochloa crusgalli (inhibition level)” value is “B (80 ≦ B < 90%)”.
`Cc1ccccc1C[S+]([O-])c1nc2cc(-n3nc(C)n(C(F)F)c3=O)c(F)cc2s1` (stereo not drawn) [Compound 104]: the “Herbicidal activity Amaranthus retroflexus (inhibition level)” value in the assay with Amaranthus retroflexus is given as “A (90 ≦ A ≦ 100%)”. In addition, the “Herbicidal activity Digiatria sanguinalis (inhibition level)” value with Digiatria sanguinalis was “C (60 ≦ C < 80%)”. The “Herbicidal activity Chenopodium album (inhibition level)” value with Chenopodium album is listed as “A (90 ≦ A ≦ 100%)”. The “Herbicidal activity Setaria viridis (inhibition level)” value in the assay on Setaria viridis was “C (60 ≦ C < 80%)”. Besides, the “Herbicidal activity Brassica juncea (inhibition level)” value in the assay on Brassica juncea was “A (90 ≦ A ≦ 100%)”. In addition, the “Herbicidal activity Echinochloa crusgalli (inhibition level)” value with Echinochloa crusgalli is listed as “C (60 ≦ C < 80%)”.
Take `CCSc1nc2cc(-n3nc(C)n(C(F)F)c3=O)c(F)cc2s1` [Compound 84]: the “Herbicidal activity Amaranthus retroflexus (inhibition level)” value in the assay on Amaranthus retroflexus is recorded as “B (80 ≦ B < 90%)”. Further, the “Herbicidal activity Digiatria sanguinalis (inhibition level)” value in the assay with Digiatria sanguinalis was “A (90 ≦ A ≦ 100%)”. The “Herbicidal activity Chenopodium album (inhibition level)” value with Chenopodium album is on record as “A (90 ≦ A ≦ 100%)”. Besides, the “Herbicidal activity Setaria viridis (inhibition level)” value with Setaria viridis is on record as “B (80 ≦ B < 90%)”. The “Herbicidal activity Brassica juncea (inhibition level)” value with Brassica juncea is “C (60 ≦ C < 80%)”. Moreover, the “Herbicidal activity Echinochloa crusgalli (inhibition level)” value with Echinochloa crusgalli is given as “A (90 ≦ A ≦ 100%)”.
Regarding `Cc1nn(-c2cc3nc(SCc4cccc([N+](=O)[O-])c4)sc3cc2F)c(=O)n1C(F)F` [Compound 13], the “Herbicidal activity Amaranthus retroflexus (inhibition level)” value in the assay on Amaranthus retroflexus was “A (90 ≦ A ≦ 100%)”. For the same compound, the “Herbicidal activity Digiatria sanguinalis (inhibition level)” value in the assay with Digiatria sanguinalis was “B (80 ≦ B < 90%)”. Moreover, the “Herbicidal activity Chenopodium album (inhibition level)” value in the assay with Chenopodium album is on record as “C (60 ≦ C < 80%)”. The “Herbicidal activity Setaria viridis (inhibition level)” value with Setaria viridis is given as “C (60 ≦ C < 80%)”. In addition, the “Herbicidal activity Brassica juncea (inhibition level)” value in the assay with Brassica juncea is given as “B (80 ≦ B < 90%)”. In addition, in the assay on Echinochloa crusgalli, the “Herbicidal activity Echinochloa crusgalli (inhibition level)” value is given as “C (60 ≦ C < 80%)”.
On to `Cc1ccc(CS(=O)(=O)c2nc3cc(-n4nc(C)n(C(F)F)c4=O)c(F)cc3s2)cc1` [Compound 47], for which the “Herbicidal activity Amaranthus retroflexus (inhibition level)” value with Amaranthus retroflexus is on record as “A (90 ≦ A ≦ 100%)”. In the assay on Digiatria sanguinalis, the “Herbicidal activity Digiatria sanguinalis (inhibition level)” value was “A (90 ≦ A ≦ 100%)”. In addition, the “Herbicidal activity Chenopodium album (inhibition level)” value in the assay with Chenopodium album is “C (60 ≦ C < 80%)”. The “Herbicidal activity Setaria viridis (inhibition level)” value with Setaria viridis is on record as “C (60 ≦ C < 80%)”. The “Herbicidal activity Brassica juncea (inhibition level)” value in the assay with Brassica juncea is “A (90 ≦ A ≦ 100%)”. Moreover, the “Herbicidal activity Echinochloa crusgalli (inhibition level)” value with Echinochloa crusgalli was “B (80 ≦ B < 90%)”.

For the origin of these results see patent publication US7666890B2, “Synthesis and herbicidal activity of 1- (2-substituted benzo[d]thiazol-5-yl)-1H-1,2,4-triazol-5(4H)-one derivatives” (Huazhong Normal University, priority 2007, dated 2010).
